{"source": "patent US11198869B2", "about": "“Angelman syndrome antisense treatment” (The Texas A&M University System, priority 2017, dated 2021)", "test_system": "UBE3A-AS", "test": "UBE3A-AS steady state RNA (TaqMan qRT-PCR) in GABAergic iPSC-derived neurons", "assay_type": "cell-based, human", "settings": "for Difference, UBE3A-AS RNA level / UBE3A-AS RNA levels relative to the control treatment (in words): ASOs 10 μM; for decrease of UBE3A-AS RNA levels: 10 μM; for low concentration that significantly reduced UBE3A-AS RNA levels: human iPSC-derived neurons; for Relative Potency: relative to ASO 4.S = 1", "protocol": "Human-specific ASOs were then designed to target this region, which included four ASOs targeting non-polymorphic regions in human and regions conserved (100%) with macaque (Rhesus and Cynomolgus) (Table 7 and FIG. 3A). Human induced pluripotent stem cell (iPSC) neural precursor cells were differentiated into GABAergic neurons for 14 DIV and then treated with a control ASO [ASO-C (10 μM, n=3)], Topotecan [Topo (1 μM, n=2)], and six ASOs targeting UBE3A-AS [ASO-1, ASO-2, ASO-3, ASO-4, ASO-5, and ASO-6 (10 μM, n=3)]. Additionally, an ASO targeting an intronic region downstream of SNORD109B was included (ASO-7). Six days post-treatment (20 DIV), RNA was isolated from the neurons and the steady state RNA levels of UBE3A-AS and UBE3A were estimated relative to the control treatment (FIG. 3B).\nThe potency of ASO-4 was further examined given its effect on UBE3A-AS RNA levels. GABAergic iPSC-derived neurons were treated at 14 DIV with a 10-point ½ log dose response curve of ASO-4 and Topotecan, as a positive control and for comparisons between treatment [1 nM, 3 nM, 10 nM, 30 nM, 100 nM, 300 nM, 1 μM, 3 μM, 10 μM, and 30 μM (ASO-4, n=6; Topotecan, n=2)]. At 20 DIV, the steady state RNA levels of UBE3A-AS were measured and dose response curves fitted to estimate the IC50 and Emax (i.e., maximum UBE3A-AS inhibition) (Table 9 and FIG. 4A). […]\nAdditional ASOs targeting the 5′-end of UBE3A-AS were then designed to optimize the target sequences of ASO-4 (ASO-4.1, ASO-4.2, ASO-4.3, and ASO-4.4) as well as two other target regions, ASO-3 (ASO-3.1 and ASO-3.2) and ASO-6 (ASO-6.1) (Table 11). Additionally, ASO-4 was manufactured at two different vendors for comparative purposes (ASO-4.S, Sigma; ASO-4.I, Integrated DNA Technologies). Human iPSC-derived neurons (GABAergic) were treated at 14 DIV with a […] ½ log dose curve of ASO-3.1, ASO-3.2, ASO-4.S, ASO-4.I, ASO-4.1, ASO-4.2, ASO-4.3, ASO-4.4, and ASO-6.1 [30 nM, 100 nM, 300 nM, 1 μM (n=6)]. At 20 DIV, the IC50 and Emax of each ASO was estimated as described above (FIG. 5A-B and Table 12). […] No significant difference was observed between ASO-4.S and ASO-4.I.\nThe potency of ASO-4 and ASO-6.1 was further examined in iPSC-derived neurons at a later time point in differentiation. GABAergic iPSC-derived neurons were treated at 29 DIV with a 10-point ½ log dose response curve of ASO-4 and ASO-6.1 [1 nM, 3 nM, 10 nM, 30 nM, 100 nM, 300 nM, 1 μM, 3 μM, 10 μM, and 30 μM (n=3)]. At 35 DIV, the IC50 and Emax of each ASO was estimated as described above (FIG. 5C-D and Table 14). The dose response curves of ASO-4 and ASO-6.1 were not similar (Parallelism test: F(3,172)=22.7, p<0.0001).\nGABAergic and glutamatergic induced pluripotent stem cell (iPSC) derived neural precursor cells (NRC-100-010-001 and GNC-301-030-001, Cellular Dynamics International, Madison Wis.) were differentiated into neurons according to the manufactures protocol. Briefly, neural precursor cells were thawed and resuspended in chemically defined medium and added to sterile-culture plates coated with poly-D-lysine and laminin. The medium was replaced 24 hr after plating and then one-half of the medium was replaced every 3-5 days afterwards.\nFor cultured iPSC-derived neurons, RNA isolation and cDNA synthesis were performed using the Cell-to-CT kit (Thermo Fisher Scientific) in a lysate volume of 55 μl.\nThe steady state RNA levels of target transcripts were measured using TaqMan quantitative reverse-transcription PCR (qRT-PCR) assays. Total reaction volume was 10 uL, including 2 μl of cDNA, 1× Gene Expression Master mix (4369016, Thermo Fisher Scientific, Waltham, Mass.), and 1× TaqMan primer assay (Thermo Fisher Scientific). Cycling conditions were 2 minutes at 50° C., 10 minutes at 95° C., and 40 cycles of 15 seconds at 95° C. and 1 minute at 60° C., with readings taken at the 60° C. step of every cycle. […]", "key": {"[1]": {"settings": "Topo 1 μM, 14 DIV to 20 DIV, ASO-1 minus labelled treatment"}, "[2]": {"settings": "Topo 1 μM, 14 DIV to 20 DIV, ASO-R minus labelled treatment"}, "[3]": {"settings": "Topo 1 μM, 14 DIV to 20 DIV, Topo minus labelled treatment"}, "[4]": {"settings": "Topo 1 μM, treated 14 DIV, RNA 20 DIV, normalized to ASO-C, ASO-C minus labelled treatment"}, "[5]": {"settings": "14 DIV to 20 DIV, ASO-3 minus labelled treatment"}, "[6]": {"settings": "14 DIV to 20 DIV, ASO-5 minus labelled treatment"}, "[7]": {"settings": "14 DIV to 20 DIV, ASO-6 minus labelled treatment"}, "[8]": {"settings": "optimized ASOs, 14 DIV to 20 DIV, parallel model, 3-parameter logistic, read-out: IC50 (M), UBE3A-AS"}, "[9]": {"settings": "optimized ASOs, treated 14 DIV, RNA 20 DIV, 5-point dose curve 30 nM-3 μM, full model, 3-parameter logistic, read-out: IC50 Estimate, UBE3A-AS"}, "[10]": {"settings": "treated 14 DIV, RNA 20 DIV, 10-point dose curve, 4-parameter logistic (Hill)"}, "[11]": {"settings": "treated 29 DIV, RNA 35 DIV, 10-point dose curve, full model, 4-parameter logistic (Hill), read-out: IC50 Estimate, UBE3A-AS"}}, "note": "Read-outs that look alike come from different tables or passages of the source.", "data": [{"molecule": "G^O*U^O*A^O*C^O*U^O*c*t*t*c*c*t*c*a*g*t*C^O*A^O*U^O*C^O*C^O [ASO-2]", "values": [{"measurement": "Difference, UBE3A-AS RNA level", "setting": "[1]", "value": 0.38}, {"measurement": "Difference, UBE3A-AS RNA level", "setting": "[2]", "value": 0.87}, {"measurement": "Difference, UBE3A-AS RNA level", "setting": "[3]", "value": 0.23}, {"measurement": "Difference, UBE3A-AS RNA level", "setting": "[4]", "value": 0.89}, {"measurement": "Difference, UBE3A-AS RNA level", "setting": "[5]", "value": 0.10}, {"measurement": "Difference, UBE3A-AS RNA level", "setting": "14 DIV to 20 DIV, ASO-4 minus labelled treatment", "value": 0.02}, {"measurement": "Difference, UBE3A-AS RNA level", "setting": "[6]", "value": 0.18}, {"measurement": "Difference, UBE3A-AS RNA level", "setting": "[7]", "value": 0.06}, {"measurement": "UBE3A-AS RNA levels relative to the control treatment (in words)", "setting": "treated 14 DIV, RNA 20 DIV", "value": "largest effect"}]}, {"molecule": "U^O*A^O*G^O*A^O*A^O*t*g*g*c*a*c*a*t*c*t*C^O*U^O*U^O*G^O*G^O [ASO-4]", "values": [{"measurement": "3 μM (Mean), Emax, normalized UBE3A-AS RNA level relative to vehicle", "setting": "treated 14 DIV, RNA 20 DIV", "value": 0.29}, {"measurement": "decrease of UBE3A-AS RNA levels", "setting": "treated 14 DIV, RNA 20 DIV", "value": 87, "unit": "%"}, {"measurement": "decrease of UBE3A-AS RNA levels", "setting": "treated 59 DIV, RNA 65 DIV", "value": 81, "unit": "%"}, {"measurement": "30 μM (Mean), normalized UBE3A-AS RNA level relative to vehicle", "setting": "treated 14 DIV, RNA 20 DIV", "value": 0.09}, {"measurement": "30 μM (Mean), normalized UBE3A-AS RNA level relative to vehicle", "setting": "treated 29 DIV, RNA 35 DIV", "value": 0.11}, {"measurement": "Difference, UBE3A-AS RNA level", "setting": "[1]", "value": 0.36}, {"measurement": "Difference, UBE3A-AS RNA level", "setting": "[2]", "value": 0.85}, {"measurement": "Difference, UBE3A-AS RNA level", "setting": "[3]", "value": 0.21}, {"measurement": "Difference, UBE3A-AS RNA level", "setting": "[4]", "value": 0.87}, {"measurement": "Difference, UBE3A-AS RNA level", "setting": "[5]", "value": 0.08}, {"measurement": "Difference, UBE3A-AS RNA level", "setting": "[6]", "value": 0.16}, {"measurement": "Difference, UBE3A-AS RNA level", "setting": "[7]", "value": 0.04}, {"measurement": "UBE3A-AS RNA levels relative to the control treatment (in words)", "setting": "treated 14 DIV, RNA 20 DIV", "value": "largest effect"}, {"measurement": "low concentration that significantly reduced UBE3A-AS RNA levels", "value": 3, "unit": "nM"}, {"measurement": "IC50", "setting": "[8]", "value": "1.49e-06", "unit": "M"}, {"measurement": "Relative Potency", "setting": "optimized ASOs, parallel model", "value": "highest relative potency"}, {"measurement": "Relative Potency", "setting": "optimized ASOs, parallel model, listed as ASO 4.S", "value": 1}, {"measurement": "IC50", "setting": "[9]", "value": "1.06e-06", "unit": "M"}, {"measurement": "ASO-4/Topotecan Emax ratio (equivalence test)", "setting": "treated 14 DIV, RNA 20 DIV", "value": "−4.1"}, {"measurement": "ASO-4/Topotecan IC50 ratio (equivalence test)", "setting": "treated 14 DIV, RNA 20 DIV", "value": 1.2}, {"measurement": "IC50", "setting": "treated 14 DIV, RNA 20 DIV, 10-point dose curve 1 nM-30 μM, full model, 4-parameter logistic (Hill), read-out: IC50 Estimate (M), UBE3A-AS", "value": "6.13e-07", "unit": "M"}, {"measurement": "Emax Estimate (normalized UBE3A-AS RNA level relative to vehicle)", "setting": "[10]", "value": "−0.06"}, {"measurement": "Emax Estimate (normalized UBE3A-AS RNA level relative to vehicle)", "setting": "treated 29 DIV, RNA 35 DIV, 4-parameter logistic (Hill)", "value": 0.08}, {"measurement": "IC50", "setting": "[11]", "value": "7.77e-07", "unit": "M"}]}, {"molecule": "CC[C@@]1(O)C(=O)OCc2c1cc1n(c2=O)Cc2cc3c(CN(C)C)c(O)ccc3nc2-1", "note": "[Topotecan, reference compound]", "values": [{"measurement": "30 μM (Mean), normalized UBE3A-AS RNA level relative to vehicle", "setting": "treated 14 DIV, RNA 20 DIV", "value": 0.21}, {"measurement": "Difference, UBE3A-AS RNA level", "setting": "[1]", "value": 0.15}, {"measurement": "Difference, UBE3A-AS RNA level", "setting": "[2]", "value": 0.64}, {"measurement": "Difference, UBE3A-AS RNA level", "setting": "[4]", "value": 0.66}, {"measurement": "IC50", "setting": "Homo sapiens, Neuron, treated 14 DIV, RNA 20 DIV, 10-point dose curve 1 nM-30 μM, full model, 4-parameter logistic (Hill), read-out: IC50 Estimate (M), UBE3A-AS", "value": "3.37e-08", "unit": "M"}, {"measurement": "Emax Estimate (normalized UBE3A-AS RNA level relative to vehicle)", "setting": "[10]", "value": 0.26}]}, {"molecule": "C^O*U^O*G^O*G^O*t*g*t*c*a*a*c*a*a*g*C^O*C^O*A^O*A^O [ASO-6.1]", "values": [{"measurement": "3 μM (Mean), Emax, normalized UBE3A-AS RNA level relative to vehicle", "setting": "treated 14 DIV, RNA 20 DIV", "value": 0.23}, {"measurement": "30 μM (Mean), normalized UBE3A-AS RNA level relative to vehicle", "setting": "treated 29 DIV, RNA 35 DIV", "value": 0.06}, {"measurement": "low concentration that significantly reduced UBE3A-AS RNA levels", "value": 3, "unit": "nM"}, {"measurement": "IC50", "setting": "[8]", "value": "7.2e-07", "unit": "M"}, {"measurement": "Relative Potency", "setting": "optimized ASOs, parallel model", "value": "highest relative potency"}, {"measurement": "Relative Potency", "setting": "optimized ASOs, parallel model, listed as ASO 6.1", "value": 2.07}, {"measurement": "IC50", "setting": "[9]", "value": "5.2e-07", "unit": "M"}, {"measurement": "ASO-6.1/ASO-4 ratio: Emax (equivalence test)", "setting": "treated 29 DIV, RNA 35 DIV", "value": "−1.3"}, {"measurement": "ASO-6.1/ASO-4 ratio: IC50 (equivalence test)", "setting": "treated 29 DIV, RNA 35 DIV", "value": 1.03}, {"measurement": "IC50", "setting": "[11]", "value": "5.17e-07", "unit": "M"}]}, {"molecule": "A^L*G^L*A^L*a*t*g*g*c*a*c*a*t*c*t*5mC^L*T^L*T^L*G^L (NNNATGGCACATCTNNNN; LNA gapmer, PS, 5-methylcytosine, chemistry not fully specified) [ASO-4.4.PS.L]", "values": [{"measurement": "potency relative to the other ASOs of Cluster 1", "setting": "Cluster 1 ASOs, 18 DIV to 24 DIV", "value": "at least 3 times"}, {"measurement": "Cluster (hierarchical clustering of fitted dose response curves)", "setting": "candidate ASOs, Cluster 1 representing the 9 most potent ASOs", "value": 1}]}]}
